From patent US20240229098A1, “BIOLUMINOGENIC ASSAY FOR DRUG-RESISTANCE BACTERIA DETECTION” (priority 2021, published 2024)
Entries after “also recorded” stand apart in the source; their conditions may differ.

What was measured:
firefly luciferase = biological target: T1, firefly luciferase (Photinus pyralis, UniProt P08659); assay: Background bioluminescence and oxidation of pro-luciferin probes on repeated addition of firefly luciferase; type: biochemical
T1 construct: purchased Promega E1701
Method: The initial bioluminescent background signal may come from residual D-luciferin present in the sample. High-performance liquid chromatography (HPLC) analysis could not detect any D-luciferin at a concentration below 0.1 μM. However, addition of firefly luciferase can efficiently detect and consume the residual free D-luciferin.
To further confirm the quenching effect of dabcyl in D-Bluco, another control, Am-Bluco, was prepared that is structurally similar to D-Bluco but with dabcyl replaced by a structure lacking the broad absorption between 400 and 530 nm (FIG. 1).

OXA-48 = biological target: T2, OXA-48 (Klebsiella pneumoniae, UniProt Q6XEC0); assay: Limit of detection of recombinant β-lactamase by bioluminescence (OXA-48); type: biochemical
T2 construct: made in house
T2 sequence (Q6XEC0 23-265 limits assumed): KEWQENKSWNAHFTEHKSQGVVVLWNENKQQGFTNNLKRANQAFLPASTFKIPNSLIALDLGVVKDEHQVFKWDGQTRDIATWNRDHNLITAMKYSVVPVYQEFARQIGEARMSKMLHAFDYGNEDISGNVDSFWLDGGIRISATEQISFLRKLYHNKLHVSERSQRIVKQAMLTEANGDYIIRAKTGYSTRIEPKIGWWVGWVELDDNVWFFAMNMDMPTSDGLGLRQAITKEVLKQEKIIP

AmpC = assay: Limit of detection of recombinant β-lactamase by bioluminescence (AmpC); type: biochemical; conditions: 2 hours, room temperature; 3 SD of negative control
E. coli/TEM lysate = assay: Bioluminescence with bacterial lysate compared to intact bacteria, E. coli/TEM; type: cell-based, Escherichia coli; conditions: CHAPS lysis
TEM-1 [1] = biological target: T3, TEM-1 (Escherichia coli, UniProt P62593); assay: Fluorescence turn-on of caged luciferin probes with recombinant TEM-1 bla; type: biochemical; set-up: made in house
T3 sequence (P62593 24-286 limits assumed): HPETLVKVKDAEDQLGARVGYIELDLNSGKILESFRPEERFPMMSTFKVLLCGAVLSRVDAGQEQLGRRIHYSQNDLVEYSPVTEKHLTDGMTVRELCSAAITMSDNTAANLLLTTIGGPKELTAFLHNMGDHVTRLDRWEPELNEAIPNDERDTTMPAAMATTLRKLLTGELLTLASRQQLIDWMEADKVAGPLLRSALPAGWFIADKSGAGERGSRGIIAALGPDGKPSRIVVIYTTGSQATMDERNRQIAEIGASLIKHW
Method: D-Bluco was evaluated as to whether it could be processed by β-lactamase to release luciferin with one of the most prevalent Ambler class A β-lactamases, TEM-1.
Both probes were evaluated to with TEM-1 bla, one of the most abundant β-Lactamases for initial testing. The fluorescent signal of D-Bluco and O-Bluco incubated with 100 nM TEM-1 bla was examined with a microplate reader over a period of 40 minutes.
General information: All chemicals were purchased from commercial sources and used without further purification. […] QuantiLum Recombinant luciferase (catalog number E1701) was purchased from Promega (Madison, WI). Reaction progress was monitored by analytical thin layer chromatography (TLC) with 0.25 mm silica gel 60F plates and visualized with fluorescent indicator (254 nm). Flash column chromatography was conducted using silica gel (SiliaFlash for flash column, 40-63 μm, 60 Å). The ^1H and ^13C NMR spectra were acquired on a Varian 500 MHz or 600 MHz magnetic resonance spectrometer. Data for ^1H NMR spectra are reported as follows: chemical shifts are reported as δ in units of parts per million (ppm) relative to chloroform-d (δ 7.26, s); multiplicities are reported as follows: s (singlet), d (doublet), t (triplet), q (quartet), dd (doublet of doublets), m (multiplet), or br (broadened); coupling constants are reported as a J value in Hertz (Hz); and the number of protons (n) for a given resonance is indicated nH and based on the spectral integration values. High resolution mass spectra were obtained on a Thermo Exactive Orbitrap LC/MS. HPLC was performed on a Dionex HPLC System (Dionex Corporation) equipped with a GP50 gradient pump and an inline diode array UV-Vis detector. A reversed-phase C18 (Phenomenax, 5 μm, 10×250 mm or Dionex, 5 μm, 4.6×250 mm) column was used with a MeCN (B)/H2O (A) gradient mobile phase containing 0.1% trifluoroacetic acid at a flow of 1 or 3 mL/min for the analysis. Fluorescence Spectra and kinetic experiments were collected by a SpectraMax iD3 multimode microplate reader (Molecular Device, San Jose, CA).

TEM-1 [2] = biological target: T3, TEM-1; type: biochemical; set-up: made in house; conditions: 10 μM probe
Method: RLU indicates relative light units.
FIGS. 9A and 9B illustrates bioluminescent studies of D-Bluco and O-Bluco treating with various β-lactamases. 10 μM of Bluco, D-Bluco and O-Bluco incubated with 20 nM TEM-1 for 15 min in PBS at r.t. The bioluminescent signals for each compound was evaluated with or without the addition of TEM-1 by a luminator. […] The relative bioluminescent was calculated by removing background signal in PBS.
The bioluminescence emission from the released D-luciferin was measured. […] Also evaluated was whether there was interference between luciferase and β-lactamases in such dual enzyme reaction system.
The signal to background ratio for D-Bluco, O-Bluco, and Bluco was measured following the addition of the firefly luciferase (fLuc).
The caged luciferin probes were incubated with different concentrations of TEM-1 β-lactamase or IMP-1 carbapenemase (0.001-0.1 fmol) in PBS (pH=7.4) for 2 hr at 25° C. Then a mixture of luciferase (200 nM), ATP (2 mM), and MgCl2 (4 mM) was added, and bioluminescent signals were detected with a SpectraMax microplate reader or a luminator.

E. coli/TEM = assay: Inhibitor test with E. coli/TEM and D-Bluco; conditions: D-Bluco 10 μM, no inhibitor
[3] = Stability of probe incubated with E. coli or PBS; conditions: incubated with Escherichia coli or PBS
K. pneumoniae/KPC = assay: RAPID BLI test, clinic isolate spiked into synthetic urine, K. pneumoniae/KPC; conditions: K. pneumoniae/KPC in synthetic urine, D-Bluco 10 μM
Method: The modified rapid BLI protocol is applied. The signal of D-Bluco in PBS was subtracted before plotting. The working concentration of D-Bluco was 10 μM. All the studies were duplicated at room temperature in PBS (pH=7.4). Statistical significance was calculated using the unpaired two-tailed Student's t test (** p<0.0021, *** p<0.0002, **** p<0.0001, for comparison with 10^5 cfu/mL E. coli) (** p<0.0021, **** p<0.0001, ns: not significant). RLU indicates relative light units. Dotted line represents 3SD of the negative control.
(§1) Bacteria was mixed with 0.5% CHAPS lysis buffer for 15 min, and then incubated with D-Bluco at room temperature for another 15 min. The resulted mixture was combined with assay buffer which contains MgCl2, CoA, ATP, and luciferase for immediate bioluminescent reading.
Clinic isolates representing different classes (class A: Enterobacter cloacae/IMI, E. coli/TEM, K. pneumoniae/KPC; class B: E. coli/NDM, and class C: E. cloacae/AmpC) were spiked into synthetic urine samples.

K. pneumoniae/KPC lysate = assay: Bioluminescence with bacterial lysate compared to intact bacteria, K. pneumoniae/KPC; conditions: CHAPS lysis
Method: To evaluate whether releasing β-lactamases from periplasm could improve detection sensitivity, the bacteria were lysed.
Two clinically significant isolates K. pneumoniae expressing KPC carbapenemase (K. pneumoniae/KPC) and E. coli expressing New Delhi metallo β-lactamase (E. coli/NDM) were evaluated.
as §1

T1 sequence (P08659 whole entry): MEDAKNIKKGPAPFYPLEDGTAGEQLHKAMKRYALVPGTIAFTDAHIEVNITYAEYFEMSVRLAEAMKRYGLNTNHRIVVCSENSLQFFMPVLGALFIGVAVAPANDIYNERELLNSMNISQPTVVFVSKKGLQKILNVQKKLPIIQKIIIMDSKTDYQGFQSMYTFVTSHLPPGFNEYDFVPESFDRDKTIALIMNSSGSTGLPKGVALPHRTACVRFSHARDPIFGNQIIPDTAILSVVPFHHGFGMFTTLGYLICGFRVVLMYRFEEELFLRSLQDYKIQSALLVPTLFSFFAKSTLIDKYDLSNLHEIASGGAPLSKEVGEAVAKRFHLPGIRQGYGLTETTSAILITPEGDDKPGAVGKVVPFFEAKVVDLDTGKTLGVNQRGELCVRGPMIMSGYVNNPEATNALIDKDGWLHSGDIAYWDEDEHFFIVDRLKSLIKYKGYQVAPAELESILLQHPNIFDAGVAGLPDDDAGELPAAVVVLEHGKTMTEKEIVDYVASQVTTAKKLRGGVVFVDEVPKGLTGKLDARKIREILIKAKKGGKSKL

CN(C)c1ccc(/N=N/c2ccc(C(=O)NCCCCCC(=O)NC3C(=O)N4C(C(=O)O)=C(COc5ccc6nc(C7=N[C@@H](C(=O)O)CS7)sc6c5)C[S+]([O-])C34)cc2)cc1 (stereo partly drawn) [D-Bluco, 3-(((2-((S)-4-carboxy-4,5-dihydrothiazol-2-yl)benzo[d]thiazol-6-yl)oxy)methyl)-7-(6-(4-((E)-(4-(dimethylamino)phenyl)diazenyl)benzamido)hexanamido)-8-oxo-5-thia-1-azabicyclo[4.2.0]oct-2-ene-2-carboxylic acid 5-oxide]
oxidation of probe incubated with firefly luciferase (mass spectrometry) (firefly luciferase; incubated with firefly luciferase): oxidized
bioluminescence emission on additional batches of firefly luciferase (firefly luciferase; repeated firefly luciferase addition, no β-lactamase): no further bioluminescence emission was detected
efficiency of OXA-48 in hydrolyzing the probe (OXA-48): low efficiency
limit of detection (LOD) of OXA-48 (OXA-48; 2 hours, room temperature, 3 SD of negative control (D-Bluco in PBS)): 0.1 femtomole
limit of detection (LOD) of AmpC (AmpC): 0.1 femtomole
signal enhancement with lysate compared to intact bacteria (E. coli/TEM lysate): 52 fold
fold increase in fluorescence emission in the presence of TEM-1 (TEM-1 [1]; 1 μM probe, TEM-1 100 nM, 40 min, PBS pH 7.4, r.t., excitation 330 nm, emission 530 nm): 37.6 fold
time of rapid fluorescence intensity increase before plateau (TEM-1 [1]; TEM-1 bla 100 nM, monitored over 40 minutes): ≤ 10 min
fluorescence emission in the absence of TEM-1 (TEM-1 [1]; without TEM-1, excitation 330 nm, emission 530 nm): little emission
fold increase in bioluminescence emission upon TEM-1 treatment (turn-on ratio, signal with TEM-1 over signal without TEM-1) (TEM-1 [2]; TEM-1 20 nM, 15 min, PBS pH 7.4, r.t.): 1420 fold
initial bioluminescent background signal without TEM-1 (TEM-1 [2]; without TEM-1): significantly lower than that of Bluco; also recorded: lowest background signal
increase of bioluminescent intensity of E. coli/TEM-1 treated with probe over PBS (E. coli/TEM): 260 fold
stability when incubated with E. coli or PBS [3]: highly stable
concentration detected directly without culture (K. pneumoniae/KPC): 10^3 cfu/mL
signal enhancement with lysate compared to intact bacteria (K. pneumoniae/KPC lysate): 141 fold
